Consider twelve compounds from PubChem BioAssay AID1259411 (Chemical Carcinogenesis Research Information System (CCRIS), 2018).

This data set concerns rodent carcinogenicity bioassays, tumor incidence. Description: CCRIS carcinogenicity studies. An outline of the steps: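 Archive of carcinogenicity, mutagenicity, tumor promotion and tumor inhibition results drawn from journals, NCI reports and other sources, expert-reviewed; covers 1985-2011 and is no longer updated.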

Calls of active or inactive are those of the source. The rule behind the calls is not given here.

Consider `O=C1OC2(c3ccccc31)c1cc(I)c(O)c(I)c1Oc1c2cc(I)c(O)c1I`, for which the carcinogen call is, setting by setting: (Species: MOUSE, Strain/Sex: CD-1/FEMALE, Route: ORAL, Dose: 0, 0.3, 1.0, 3.0% IN DIET FOR 24 MO (STUDY DURATION: 24 MO), Dose: 0, 0.3, 1.0, 3.0% IN DIET FOR 24 MO (STUDY DURATION: 24 MO)) “inactive; negative”; (Species: MOUSE, Strain/Sex: CD-1/MALE, Route: ORAL, Dose: 0, 0.3, 1.0, 3.0% IN DIET FOR 24 MO (STUDY DURATION: 24 MO), Dose: 0, 0.3, 1.0, 3.0% IN DIET FOR 24 MO (STUDY DURATION: 24 MO)) “inactive; negative”; (Species: MOUSE, Strain/Sex: ICR/FEMALE, Route: DERMAL, Dose: 0, 1 MG IN 0.1 ML DISTILLED WATER 2/WK FOR A MEAN TOTAL DOSE OF 133 MG (STUDY DURATION: 18 MO)) “inactive; negative”; (Species: MOUSE, Strain/Sex: ICR/MALE, Route: DERMAL, Dose: 0, 1 MG IN 0.1 ML DISTILLED WATER 2/WK FOR A MEAN TOTAL DOSE OF 133 MG (STUDY DURATION: 18 MO)) “inactive; negative”; (Species: RAT, Strain/Sex: CD-1/FEMALE, Route: ORAL, Dose: 0, 0.1, 0.5, 1% IN DIET FOR 30 MO BEGINNING IN UTERO WITH PARENTS GIVEN THE SAME DIETARY DOSES (STUDY DURATION: 30 MO), Dose: 0, 0.1, 0.5, 1% IN DIET FOR 30 MO BEGINNING IN UTERO WITH PARENTS GIVEN THE SAME DIETARY DOSES (STUDY DURATION: 30 MO)) “inactive; negative”; (Species: RAT, Strain/Sex: CD-1/FEMALE, Route: ORAL, Dose: 0, 4% IN DIET FOR 30 MO BEGINNING IN UTERO WITH PARENTS GIVEN THE SAME DIETARY DOSES (STUDY DURATION: 30 MO)) “inactive; negative”. Further, the carcinogen call reads like this: (Species: RAT, Strain/Sex: CD-1/MALE, Route: ORAL, Dose: 0, 0.1, 0.5, 1% IN DIET FOR 30 MO BEGINNING IN UTERO WITH PARENTS GIVEN THE SAME DIETARY DOSES (STUDY DURATION: 30 MO), Dose: 0, 0.1, 0.5, 1% IN DIET FOR 30 MO BEGINNING IN UTERO WITH PARENTS GIVEN THE SAME DIETARY DOSES (STUDY DURATION: 30 MO)) “inactive; negative”; (Species: RAT, Strain/Sex: CD-1/MALE, Route: ORAL, Dose: 0, 4% IN DIET FOR 30 MO BEGINNING IN UTERO WITH PARENTS GIVEN THE SAME DIETARY DOSES (STUDY DURATION: 30 MO), Tumor Site: Type of Lesion: THYROID: ADENOMA) “active; positive”.
As for `CCCCCCCCCCN(C)N=O`, the carcinogen call (Species: RAT, Strain/Sex: F344/MALE, Route: GAVAGE, Dose: 0, 108 MG/ML IN CORN OIL 2/WK FOR 30 WK, STUDY DURATION: 110 WK, Dose: 0, 108 MG/ML IN CORN OIL 2/WK FOR 30 WK, STUDY DURATION: 110 WK, Tumor Site: Type of Lesion: LUNG: ADENOCARCINOMA, BLADDER) is “active; positive”.
For the compound `Cc1cccc2ccccc12`, the carcinogen call reads like this: (Species: MOUSE, Strain/Sex: B6C3F1/FEMALE, Route: ORAL, Dose: 0, 0.075, 0.15% IN DIET FOR 81 WK (STUDY DURATION: 81 WK), Dose: 0, 0.075, 0.15% IN DIET FOR 81 WK (STUDY DURATION: 81 WK)) “inactive; negative”; (Species: MOUSE, Strain/Sex: B6C3F1/MALE, Route: ORAL, Dose: 0, 0.075, 0.15% IN DIET FOR 81 WK (STUDY DURATION: 81 WK), Dose: 0, 0.075, 0.15% IN DIET FOR 81 WK (STUDY DURATION: 81 WK), Tumor Site: Type of Lesion: LUNG: ADENOMA) “active; positive”.
Turning to `CCN(CC)CCNc1ccc(CO)c2sc3ccccc3c(=O)c12`, the carcinogen call (Species: MOUSE, Route: INTRAMUSCULAR, Tumor Site: Type of Lesion: LIVER) is “active; positive”.
Take `Oc1ccc2ccccc2c1N=Nc1ccccc1`: the carcinogen call was “active; positive” (Species: MOUSE, Route: SUBCUTANEOUS, Tumor Site: Type of Lesion: LIVER); “inactive; negative” (Species: MOUSE, Strain/Sex: B6C3F1/MALE, Route: ORAL, Dose: 0, 500, 1000 PPM IN DIET, Dose: 0, 500, 1000 PPM IN DIET); “active; positive” (Species: RAT, Strain/Sex: F344/FEMALE, Route: ORAL, Dose: 0, 250, 500 PPM IN DIET, Dose: 0, 250, 500 PPM IN DIET, Tumor Site: Type of Lesion: LIVER: NEOPLASTIC NODULE); “active; positive” (Species: RAT, Strain/Sex: F344/MALE, Route: ORAL, Dose: O, 250, 500 PPM IN DIET, Dose: O, 250, 500 PPM IN DIET, Tumor Site: Type of Lesion: LIVER: NEOPLASTIC NODULE).
For `CCCCN(N=O)C1CCC(=O)O1` (stereo unspecified), for the setting “Species: RAT, Strain/Sex: F344/MALE, Route: SUBCUTANEOUS, Dose: 38 UMOL/KG IN OLIVE OIL 1/WK FOR 10 WK, Tumor Site: Type of Lesion: INJECTION SITE: MALIGNANT FIBROUS HISTIOCYTOMA, LUNG: ADENOMA”, the carcinogen call is “active; positive”.
Consider `NC(=O)N(N)c1ccccc1`, for which the carcinogen call (Species: MOUSE, Route: ORAL, Tumor Site: Type of Lesion: LIVER, LUNG) was “active; positive”.
As to `CCOP(=S)(OCC)Oc1ccc2c(C)c(Cl)c(=O)oc2c1`, the carcinogen call is, setting by setting: (Species: MOUSE, Strain/Sex: B6C3F1/FEMALE, Route: ORAL, Dose: 0, 10, 20 PPM IN DIET, Dose: 0, 10, 20 PPM IN DIET) “inactive; negative”; (Species: MOUSE, Strain/Sex: B6C3F1/MALE, Route: ORAL, Dose: 0, 10, 20 PPM IN DIET, Dose: 0, 10, 20 PPM IN DIET) “inactive; negative”; (Species: RAT, Strain/Sex: F344/FEMALE, Route: ORAL, Dose: 0, 10, 20 PPM IN DIET, Dose: 0, 10, 20 PPM IN DIET) “inactive; negative”; (Species: RAT, Strain/Sex: F344/MALE, Route: ORAL, Dose: 0, 10, 20 PPM IN DIET, Dose: 0, 10, 20 PPM IN DIET) “inactive; negative”; (Species: Rat, Strain/Sex: Wistar/Female (50/group), Route: Oral, Dose: 0 (1% peanut oil), 1, 5, 25 ppm in diet for 24 mo, test material purity 99.2%, Dose: 0 (1% peanut oil), 1, 5, 25 ppm in diet for 24 mo, test material purity 99.2%) “inactive; negative. according to dpr evaluator; original data not presented. cholinesteras”; (Species: Rat, Strain/Sex: Wistar/Male (50/group), Route: Oral, Dose: 0 (1% peanut oil), 1, 5, 25 ppm in diet for 24 mo, test material purity 99.2%, Dose: 0 (1% peanut oil), 1, 5, 25 ppm in diet for 24 mo, test material purity 99.2%) “inactive; negative. according to dpr evaluator; original data not presented. cholinesteras”.
For the compound `C/C=C(/C)C(=O)O[C@H]1CCN2CC=C(COC(=O)[C@@](O)([C@H](C)OC)C(C)(C)O)[C@H]12`, the carcinogen call runs as follows: (Species: RAT, Route: INTRAPERITONEAL, Tumor Site: Type of Lesion: INTESTINES, LIVER, INTEGUMENTARY SYSTEM (SKIN), Tumor Site: Type of Lesion: INTESTINES, LIVER, INTEGUMENTARY SYSTEM (SKIN)) “active; positive”; (Species: RAT, Strain/Sex: F344/FEMALE, Route: ORAL, Dose: 0, 7, 15, 30 PPM IN DIET, Dose: 0, 7, 15, 30 PPM IN DIET, Tumor Site: Type of Lesion: LIVER: HEPATOCELLULAR CARCINOMA OR ADENOMA (NOS), ANGIOSARCOMA, HEMATOPOIETIC SYSTEM (LEUKEMIA), LYMPHATIC SYSTEM: LYMPH, Tumor Site: Type of Lesion: LIVER: HEPATOCELLULAR CARCINOMA OR ADENOMA (NOS), ANGIOSARCOMA, HEMATOPOIETIC SYSTEM (LEUKEMIA), LYMPHATIC SYSTEM: LYMPH) “active; positive”; (Species: RAT, Strain/Sex: F344/MALE, Route: ORAL, Dose: 0, 7, 15, 30 PPM IN DIET, Dose: 0, 7, 15, 30 PPM IN DIET, Tumor Site: Type of Lesion: LIVER: HEPATOCELLULAR CARCINOMA OR ADENOMA (NOS), ANGIOSARCOMA) “active; positive”.
Take `CN(C#N)N=O`: the carcinogen call (Species: RAT, Strain/Sex: SPRAGUE-DAWLEY/FEMALE, Route: ORAL, Dose: 0, 6.9 MG/KG IN 25 ML DRINKING WATER DAILY (STUDY DURATION: >11 MO), Tumor Site: Type of Lesion: FORESTOMACH: SQUAMOUS CELL CARCINOMA, ESOPHAGUS: SQUAMOUS CELL PAPILLOMA OR SQUAMOUS CELL CARCINOMA) is “active; positive”.
Regarding `O=[N+]([O-])C1=Cc2cccc3cccc(c23)O1`, the carcinogen call (Species: RAT, Strain/Sex: WISTAR/MALE, Route: SUBCUTANEOUS, Dose: 0, 0.5 MG IN DMSO 1/WK FOR DURATION OF STUDY (TOTAL DOSE: 0; 19.5 MG) (STUDY DURATION: 271 D), Dose: 0, 0.5 MG IN DMSO 1/WK FOR DURATION OF STUDY (TOTAL DOSE: 0; 19.5 MG) (STUDY DURATION: 271 D), Tumor Site: Type of Lesion: INJECTION SITE: FIBROSARCOMA) was “active; positive”.
As to `Cc1cccc(Nc2cc(Cl)nc(SCC(=O)NCCO)n2)c1C`, the carcinogen call is “active; positive” (Species: MOUSE, Strain/Sex: STRAIN-CS/FEMALE, Route: ORAL, Dose: 0.2% IN DIET FOR 19 MO, Tumor Site: Type of Lesion: LIVER: HEPATOCELLULAR CARCINOMA) and “active; positive” (Species: RAT, Strain/Sex: F344/MALE, Route: ORAL, Dose: 0.05, 0.2% IN DIET FOR 19 MO (LOW DOSE) OR 16 MO (HIGH DOSE), Tumor Site: Type of Lesion: LIVER: HEPATOCELLULAR CARCINOMA).
